{"source": "patent US9956267B2", "about": "“Method of treating skeletal dysplasias using vessel dilator” (University of South Florida, priority 2010, dated 2018)", "key": {"ERK 1/2 kinases [1]": {"system": "ERK 1/2 kinases", "details": "ATDC5 cells, mouse chondrogenic cell line; cited from earlier work"}, "[2]": {"details": "in vivo; cited from earlier work"}, "[3]": {"system": "human osteoblast cells (ATCC number CRL-11372)", "assay": "Cell Titer 96 Aqueous One Solution (MTS) cell proliferation assay of human osteoblasts", "type": "cell-based", "details": "for enhancement of human osteoblast proliferation compared with controls: absorbance at 490 nm at day 7", "description": "A cell line (ATCC number CRL-11372) of human osteoblast cells was purchased from the American Type Culture […] (ATCC, Manassas, Va.). Propagation of the human osteoblast cells was in a 1:1 mixture of Ham's F12 Medium and Dulbecco's Modified Eagles Medium (DMEM) with 2.5 mM L-glutamine without phenol red. Base medium was supplemented with 0.3 mg/mL of Geneticin (G418) antibiotic and 10% fetal bovine serum (Harris S A, et al. 1995 Developmental and characterization of a conditionally immortalized human fetal osteoblastic cell line. J Bone Miner Res 10:178-186). Cells were incubated at a temperature of 34° C. in 5% CO2 at which they have rapid cell division, doubling every 36 hours (Harris S A, et al. 1995 Developmental and characterization of a conditionally immortalized human fetal osteoblastic cell line. J Bone Miner Res 10:178-186). […] Cells were dispensed into new flasks with subculturing every 6-8 days. The medium was changed every 3 days.\nAfter the osteoblast cells were subcultured for 24 h, ˜5000 cells in 200 μL of the above media were then seeded (day 1) into 96-well plates (Nuclon, Roskilde, Denmark). After overnight incubation at 34° C. in 5% CO2, the media was removed (day 2), and 50 μL of fresh media was added to control wells, blank wells (with no cells inside), and 50 μL of media with 10 picomolar (pM), 100 pM, 1 nanomolar (nM), or 10 nM of CNP or vessel dilator. At day 5, in these experiments, 50 μL of fresh media was added to the controls, blank wells, and 50 μL of media with 1 nM, 10 nM, 10 pM, and 100 pM of the respective natriuretic hormones for a total volume of 100 μL of media in each well. At day 7, 20 μL of Cell Titer 96® Aqueous One Solution (Promega Corporation, Madison, Wis.) was added to each well containing 1004 of medium and allowed to incubate for 4 h in 5% CO2 atmosphere before recording absorbance at 490 nm with a 96-well plate reader (Cory A H, et al. 1991 Use of aqueous soluble tetrazolium/formazan assay for growth assays in culture. Cancer Commun 3:207-212). There were 15 observations of vessel dilator at each concentration and 16 observations of CNP at each concentration. The peptide hormones used in this investigation were from Phoenix Pharmaceuticals, Inc., Burlingame, Calif.\nCell proliferation of human osteoblasts was examined with the Cell Titer 96 Aqueous One Solution cell proliferation assay (Promega Corp.). This colorimetric method determines the viable cells' proliferation by recording the absorption at 490 nm with a 96-well plate reader (Cory A H, et al. 1991 Use of aqueous soluble tetrazolium/formazan assay for growth assays in culture. Cancer Commun 3:207-212) after incubating the respective cells at 37° C. for 4 h in a 5% CO2 atmosphere.\nApproximately 5000 human osteoblast cells were in each well. The proliferation assay detects the number of viable cells in proliferation using a tetrazolium compound (3-[4,5-dimethylthiazol-2-yl]-5-[3-carboxymethoxyphenyl]-2-[4-sulfophenyl]-2H-tetrazolium, inner salt; MTS) and an electron coupling reagent [phenazine ethosulfate (PES)]. PES has enhanced chemical stability, which allows it to be combined with MTS to form a stable solution (Cory A H, et al. 1991 Use of aqueous soluble tetrazolium/formazan assay for growth assays in culture. Cancer Commun 3:207-212). The MTS tetrazolium compound (Owen's reagent) is bioreduced by living cells into a colored formazan product that is measurable at […] in a spectrophotometer, thereby eliminating any nonviable (i.e. dead) cells that would not be proliferating (Cory A H, et al. 1991 Use of aqueous soluble tetrazolium/formazan assay for growth assays in culture. Cancer Commun 3:207-212). This method measure only viable cells' proliferation as dead cells are unable to reduce the MTS tetrazolium compound to a colored formazan product.\nAll data are expressed as mean±SEM. Statistical significance was determined by the Mann-Whitney test (also called Wilcoxon rank-sum test) for different sample sizes. […]"}, "[4]": {"system": "cyclic GMP (cGMP) in chondrocytes", "details": "CNP versus ANP; cited from earlier work"}, "[5]": {"assay": "circulatory half-life of natriuretic peptides", "type": "in vivo, human", "details": "vessel dilator versus CNP", "description": "(§1) CNP and ANP are ring-structured natriuretic peptides with very short half-lives of <3 min in the circulation (Kalra P R, et al. 2001 The role of C-natriuretic peptide in cardiovascular medicine. Eur Heart J 22:997-1007, Teixeira C C, et al. 2008 Nitric oxide, C-type natriuretic peptide and cGMP as regulators of endochondral ossification. Dev Biol 319:171-178; Nakao K, et al. 1986 The pharmacokinetics of α-human natriuretic polypeptide in healthy subjects. Eur J Clin Pharmacol 31:101-103; Yandle T G, et al. 1986 Metabolic clearance rate and plasma half life of alpha-human atrial natriuretic peptide in man. Life Sci 38:1827-1833). Their biologic effects last for <30 min. […] J Pharmacol Exp Ther 282:603-608) and its biologic effects last >6 h (Vesely D L, et al. 1994 Three peptides from the atrial natriuretic factor prohormone amino terminus lower blood pressure and produce diuresis, natriuresis, and/or kaliuresis in humans. Circulation 90:1129-1140).\n(§2) The gene for CNP is expressed in bone (Mericq V, et al. 2000 Regulation of fetal rat bone growth by C-type natriuretic peptide and cGMP. Pediatr Res 47:189-193) to allow it to be an autocrine/paracrine regulator of bone. […] Life Sci 38:1827-1833; Ackerman B H, et al. 1997 Disposition of vessel dilator and long-acting natriuretic peptide in healthy humans after a one-hour infusion. […]"}, "[6]": {"assay": "duration of biologic effects of natriuretic peptides", "type": "in vivo, human", "details": "versus CNP", "description": "as §1, §2"}, "MEK 1/2 kinases": {"system": "MEK 1/2 kinases", "details": "proliferating prostate cancer cells; cited from earlier work"}, "ERK 1/2 kinases [7]": {"system": "ERK 1/2 kinases", "details": "cited from earlier work"}, "[8]": {"details": "in vivo; cited from earlier work", "remark": "listed apart in the source"}}, "note": "Values joined by “and” are separate entries in the source; they are usually repeats but may differ in a detail not shown here. Equal values may be shown once. Positions of bridges follow the written chain, without caps; N, C: chain ends. No end group written: not given here."}
{"compound": "Nc1nc2c(nc(Br)n2[C@@H]2O[C@@H]3COP(=O)(O)O[C@H]3[C@H]2O)c(=O)[nH]1", "note": "[8-bromo cGMP]", "values": [{"measurement": "effect on mitogen- (fibroblast growth factor) stimulated ERK 1/2 kinases' phosphorylation", "setting": "ERK 1/2 kinases [1]", "result": "inhibit"}]}
{"compound": "BNP: natriuretic peptide named with CNP and ANP, biologic effects less than 30 minutes [reference compound]", "values": [{"measurement": "duration of biologic effects", "setting": "[2]", "result": "less than 30 min"}]}
{"compound": "CNP: 22 amino acid peptide having a 17-amino acid ring, generated from the natriuretic peptide precursor C gene (GLSKGCFGLKLDRIGSMSGLGC; disulfide 6-22 (inferred); UniProt P23582 105-126, looked up) [reference compound]", "values": [{"measurement": "enhancement of human osteoblast proliferation compared with controls", "setting": "[3]; 10 pM peptide", "result": "no significant enhancement"}, {"measurement": "enhancement of human osteoblast proliferation compared with controls", "setting": "[3]; 10 nM peptide", "result": 27, "unit": "%"}, {"measurement": "effect on mitogen- (fibroblast growth factor) stimulated ERK 1/2 kinases' phosphorylation", "setting": "ERK 1/2 kinases [1]", "result": "inhibit"}, {"measurement": "stimulation of cGMP in chondrocytes relative to ANP", "setting": "[4]", "result": 10, "unit": "fold"}]}
{"compound": "Vessel dilator: linear natriuretic peptide synthesized by the ANP gene; cardiac hormone, molecular weight 3878.31 (EVVPPQVLSEPNEEAGAALSPLPEVPPWTGEVSPAQR; Vessel dilator; UniProt P01160 56-92, looked up)", "values": [{"measurement": "enhancement of human osteoblast proliferation compared with controls", "setting": "[3]; 10 pM peptide", "result": 8, "unit": "%"}, {"measurement": "enhancement of human osteoblast proliferation compared with controls", "setting": "[3]; 100 pM peptide", "result": 7, "unit": "%"}, {"measurement": "enhancement of human osteoblast proliferation compared with controls", "setting": "[3]; 1 nM peptide", "result": 6, "unit": "%"}, {"measurement": "enhancement of human osteoblast proliferation compared with controls", "setting": "[3]; 10 nM peptide", "result": 8, "unit": "%"}, {"measurement": "stimulates osteoblasts at lower concentrations than CNP", "setting": "[3]; compared with CNP", "result": 1000}, {"measurement": "circulating half-life longer than CNP", "setting": "[5]", "result": 36, "unit": "fold"}, {"measurement": "biologic effects longer than CNP, ANP or BNP", "setting": "[6]", "result": "12 times and > 12 times"}, {"measurement": "duration of biologic effects", "setting": "[2]", "result": "> 6", "unit": "h"}, {"measurement": "inhibition of activation, i.e. phosphorylation, of MEK 1/2 kinases", "setting": "MEK 1/2 kinases", "result": 98, "unit": "%"}, {"measurement": "effect on mitogen (epidermal growth factor, EGF) stimulation of ERK 1/2 kinases", "setting": "ERK 1/2 kinases [7]; EGF stimulation", "result": "completely blocks"}, {"measurement": "inhibition of the phosphorylation of basal activity of ERK 1/2 kinases", "setting": "ERK 1/2 kinases [7]; proliferating cells, basal activity", "result": 96, "unit": "%"}, {"measurement": "circulatory half-life", "setting": "[8]", "result": 1.78, "unit": "h"}, {"measurement": "duration of biologic effect", "setting": "[8]", "result": "> 6", "unit": "h"}]}
